The first assay deals with recombinant human MGAT2 (Homo sapiens (Human), UniProt Q3SYC2). Briefly: Measurement of human MGAT2 inhibitory activity. The assay is classed as biochemical. Conditions: read-out: IC50 (concentration exhibiting 50% enzyme inhibition), Table 52. As for the experimental part:
A full-length human MGAT2 gene to which a Flag-tag had been added at the N-terminal was inserted into pFastBac (from Invitrogen). A recombinant baculovirus was produced in accordance with the protocol for a Bac-to-Bac baculovirus expression system (produced by Invitrogen), and Sf-9 cells were infected therewith. The cells were collected and sonicated, and then the membrane fraction was collected through centrifugation. Western blotting analysis with an anti-Flag antibody was performed for the membrane fraction to confirm expression, and the membrane fraction was used as a recombinant human MGAT2 enzyme solution.
Solutions of the compounds of the present invention in DMSO were each aliquoted into 0.2-μL portions in a 384-well polystyrene microplate produced by Corning Incorporated, and 5 μL of an enzyme solution prepared with an assay buffer (100 mmol/L phosphate buffer (pH 7.4) containing 2 mmol/L DTT) and 5 μL of a substrate solution (100 mmol/L phosphate buffer (pH 7.4), 30 μmol/L 2-Oleoylglycerol, 10 μmol/L Oleoyl-CoA) were added thereto, and the resultant was stirred and centrifuged, and incubated in a moist chamber at room temperature for 1 hour. After enzymatic reaction, 50 μL of a quenching solution (containing 0.2 μmol/L Diolein-d5, 0.4% formic acid, and 50% isopropanol) containing Internal Standard (IS) was added to terminate the reaction, and the resultant was sealed in a plate produced by Shimadzu GLC Ltd., and then stirred and centrifuged, and measurement was performed by using an electrospray ionization method with a RapidFire360 and Agilent 6550 Q-TOF mass spectrometer. Diolein as a reaction product (P) of 2-Oleoylglycerol as the substrate and an ammonium adduct ion of the IS were detected, and the peak intensity ratio, P/IS, was calculated from the peak heights to evaluate the inhibitory activity. Inhibitory activities with/without addition of enzyme were defined as Control (+)/Control (−), respectively, and the respective % inhibitions were defined as 0% inhibition and 100% inhibition. The inhibitory activity was calculated from formula below with TIBCO Spotfire (produced by TIBCO Software Inc.): Inhibitory activity (%)=[1−{Sample−Control(−)}/{Control(+)−Control(−)}]*100 where Sample indicates a peak intensity ratio: P/IS, when the compound of the present invention was added.
Chain of recombinant human MGAT2 (Q3SYC2 whole entry): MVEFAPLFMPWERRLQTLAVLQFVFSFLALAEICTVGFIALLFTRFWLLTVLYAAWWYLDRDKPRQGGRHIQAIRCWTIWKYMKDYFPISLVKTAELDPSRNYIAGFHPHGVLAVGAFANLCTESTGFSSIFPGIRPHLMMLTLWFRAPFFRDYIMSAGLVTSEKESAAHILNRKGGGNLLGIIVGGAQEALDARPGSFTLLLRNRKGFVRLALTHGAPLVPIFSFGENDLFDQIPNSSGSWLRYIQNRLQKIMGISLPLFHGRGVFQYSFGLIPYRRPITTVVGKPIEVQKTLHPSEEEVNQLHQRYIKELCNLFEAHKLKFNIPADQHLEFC
As for `O=C(Nc1nn(CCC2CC2)c2c1C(=O)N[C@@]1(CCc3cc(OCCCC(F)(F)F)ccc31)C2)c1ccno1` [Compound I-1], the IC50 turned out to be 540 nM.

`CS(=O)(=O)CC(=O)Nc1c2c(nn1CCC1CC1)C[C@]1(CCc3cc(OCCCC(F)(F)F)ccc31)NC2=O` [Compound I-2]: the IC50 stood at 1.35 nM.

`CS(=O)(=O)CC(=O)Nc1c2c(nn1CCC1CC1)C[C@]1(CCc3cc(C4CC4)ccc31)NC2=O` [Compound I-3]: the IC50 was 9.22 nM.

In the case of `CC(=O)Nc1c2c(nn1CCC1CC1)C[C@]1(CCc3cc(OCCCC(F)(F)F)ccc31)NC2=O` [Compound I-4], the IC50 came out at 330 nM.

With `CS(=O)(=O)CC(=O)Nc1nn(CCC2CC2)c2c1C(=O)N[C@@]1(CCc3cc(OCCCC(F)(F)F)ccc31)C2` [Compound I-5], the IC50 came to 500 nM.

As for `CS(=O)(=O)CC(=O)Nc1c2c(nn1CCC1CC1)C[C@]1(CCc3cc(C(F)(F)F)ccc31)NC2=O` [Compound I-6], the IC50 stood at 11.9 nM.

On to `CS(=O)(=O)CC(=O)Nc1c2c(nn1CCC1CC1)C[C@]1(CCc3cc(OCC(F)F)ccc31)NC2=O` [Compound I-7], for which the IC50 turned out to be 15 nM.

For `O=C1N[C@@]2(CCc3cc(OCCCC(F)(F)F)ccc32)Cc2nn(CCC3CC3)c(C(=O)O)c21` [Compound I-9], the IC50 turned out to be 70 nM.

Consider `CNC(=O)c1c2c(nn1CCC1CC1)C[C@]1(CCc3cc(OCCCC(F)(F)F)ccc31)NC2=O` [Compound I-11], for which the IC50 was determined as 500 nM.

Turning to `CNS(=O)(=O)Nc1c2c(nn1CCC1CC1)C[C@]1(CCc3cc(OCCCC(F)(F)F)ccc31)NC2=O` [Compound I-13], the IC50 came to 90 nM.

`CC(C)NC(=O)Nc1c2c(nn1CCC1CC1)C[C@]1(CCc3cc(OCCCC(F)(F)F)ccc31)NC2=O` [Compound I-14]: the IC50 was determined as 380 nM.

On to `COc1ccccc1C(=O)Nc1c2c(nn1CCC1CC1)C[C@]1(CCc3cc(OCCCC(F)(F)F)ccc31)NC2=O` [Compound I-15], for which the IC50 was determined as 280 nM.

As to `O=C(Nc1c2c(nn1CCC1CC1)C[C@]1(CCc3cc(OCCCC(F)(F)F)ccc31)NC2=O)c1ccc(F)cc1` [Compound I-16], the IC50 was 150 nM.

Regarding `COc1cccc(C(=O)Nc2c3c(nn2CCC2CC2)C[C@]2(CCc4cc(OCCCC(F)(F)F)ccc42)NC3=O)c1` [Compound I-17], the IC50 was determined as 160 nM.

Consider `O=C(Nc1c2c(nn1CCC1CC1)C[C@]1(CCc3cc(OCCCC(F)(F)F)ccc31)NC2=O)c1ccno1` [Compound I-18], for which the IC50 came out at 9.1 nM.

On to `O=C(Nc1c2c(nn1CCC1CC1)C[C@]1(CCc3cc(OCCCC(F)(F)F)ccc31)NC2=O)c1ccccc1` [Compound I-19], for which the IC50 was determined as 38 nM.

In the case of `O=C(CC(F)F)Nc1c2c(nn1CCC1CC1)C[C@]1(CCc3cc(OCCCC(F)(F)F)ccc31)NC2=O` [Compound I-20], the IC50 is 21 nM.

For the molecule `CS(=O)(=O)CC(=O)NCc1c2c(nn1CCC1CC1)C[C@]1(CCc3cc(OCCCC(F)(F)F)ccc31)NC2=O` [Compound I-21], the IC50 is 17 nM.

For `CS(=O)(=O)NCc1c2c(nn1CCC1CC1)C[C@]1(CCc3cc(OCCCC(F)(F)F)ccc31)NC2=O` [Compound I-22], the IC50 was found to be 190 nM.

As to `N#CCC(=O)Nc1c2c(nn1CCC1CC1)C[C@]1(CCc3cc(OCCCC(F)(F)F)ccc31)NC2=O` [Compound I-25], the IC50 was found to be 49 nM.

Consider `O=C(CC(F)(F)F)Nc1c2c(nn1CCC1CC1)C[C@]1(CCc3cc(OCCCC(F)(F)F)ccc31)NC2=O` [Compound I-26], for which the IC50 was 15 nM.

On to `O=C(CN1CCCC1=O)Nc1c2c(nn1CCC1CC1)C[C@]1(CCc3cc(OCCCC(F)(F)F)ccc31)NC2=O` [Compound I-27], for which the IC50 is 600 nM.

As for `CC(=O)NCC(=O)Nc1c2c(nn1CCC1CC1)C[C@]1(CCc3cc(OCCCC(F)(F)F)ccc31)NC2=O` [Compound I-28], the IC50 turned out to be 435 nM.

`COCC(=O)Nc1c2c(nn1CCC1CC1)C[C@]1(CCc3cc(OCCCC(F)(F)F)ccc31)NC2=O` [Compound I-29]: the IC50 was found to be 113 nM.

Turning to `Cn1cc(CC(=O)Nc2c3c(nn2CCC2CC2)C[C@]2(CCc4cc(OCCCC(F)(F)F)ccc42)NC3=O)cn1` [Compound I-30], the IC50 stood at 175 nM.

`CNS(=O)(=O)CC(=O)Nc1c2c(nn1CCC1CC1)C[C@]1(CCc3cc(OCCCC(F)(F)F)ccc31)NC2=O` [Compound I-31]: the IC50 amounted to 3.2 nM.

With `O=C(COC(F)(F)F)Nc1c2c(nn1CCC1CC1)C[C@]1(CCc3cc(OCCCC(F)(F)F)ccc31)NC2=O` [Compound I-32], the IC50 stood at 17 nM.

For the molecule `CS(=O)(=O)CC(=O)Nc1c2c(nn1-c1ccc(OC(F)(F)F)cc1)C[C@]1(CCc3cc(OCCCC(F)(F)F)ccc31)NC2=O` [Compound I-33], the IC50 was determined as 14.7 nM.

Regarding `CS(=O)(=O)CC(=O)Nc1c2c(nn1CCC1CC1)C[C@]1(CCc3cc(CCC(F)(F)F)ccc31)NC2=O` [Compound I-35], the IC50 turned out to be 6.8 nM.

On to `CS(=O)(=O)CC(=O)Nc1c2c(nn1CCC1CC1)C[C@]1(CCc3cc(Br)ccc31)NC2=O` [Compound I-36], for which the IC50 was 27 nM.

As to `CS(=O)(=O)Nc1c2c(nn1CCC1CC1)C[C@]1(CCc3cc(OCCCC(F)(F)F)ccc31)NC2=O` [Compound I-38], the IC50 came to 625 nM.

On to `CS(=O)(=O)CC(=O)Nc1c2c(nn1-c1cccc3ccccc13)C[C@]1(CCc3cc(OCCCC(F)(F)F)ccc31)NC2=O` [Compound I-39], for which the IC50 is 930 nM.

For the molecule `CS(=O)(=O)CC(=O)Nc1c2c(nn1C1CCCCC1)C[C@]1(CCc3cc(OCCCC(F)(F)F)ccc31)NC2=O` [Compound I-40], the IC50 was found to be 18 nM.

With `CS(=O)(=O)CC(=O)Nc1c2c(nn1-c1cccc3c1CCC3)C[C@]1(CCc3cc(OCCCC(F)(F)F)ccc31)NC2=O` [Compound I-41], the IC50 was 79 nM.

As for `Cc1ccc(-n2nc3c(c2NC(=O)CS(C)(=O)=O)C(=O)N[C@@]2(CCc4cc(OCCCC(F)(F)F)ccc42)C3)cc1` [Compound I-42], the IC50 is 2.5 nM.

As for `CS(=O)(=O)CC(=O)Nc1c2c(nn1-c1ccc(S(C)(=O)=O)cc1)C[C@]1(CCc3cc(OCCCC(F)(F)F)ccc31)NC2=O` [Compound I-43], the IC50 is 340 nM.

`CS(=O)(=O)CC(=O)Nc1c2c(nn1-c1ccc(C#N)cc1)C[C@]1(CCc3cc(OCCCC(F)(F)F)ccc31)NC2=O` [Compound I-44]: the IC50 was 3.9 nM.

For the molecule `Cn1c(-n2nc3c(c2NC(=O)CS(C)(=O)=O)C(=O)N[C@@]2(CCc4cc(OCCCC(F)(F)F)ccc42)C3)nc2ccccc21` [Compound I-45], the IC50 came out at 41.5 nM.

For the molecule `CN(C)CCn1nc2c(c1NC(=O)CS(C)(=O)=O)C(=O)N[C@@]1(CCc3cc(OCCCC(F)(F)F)ccc31)C2` [Compound I-46], the IC50 came to 440 nM.

For `CS(=O)(=O)CC(=O)Nc1c2c(nn1CCN1CCCC1)C[C@]1(CCc3cc(OCCCC(F)(F)F)ccc31)NC2=O` [Compound I-47], the IC50 was 265 nM.

For the molecule `Cc1ccc(-n2nc(NC(=O)CS(C)(=O)=O)c3c2C[C@]2(CCc4cc(OCCCC(F)(F)F)ccc42)NC3=O)cc1` [Compound I-48], the IC50 came out at 195 nM.

Take `CS(=O)(=O)CC(=O)Nc1c2c(nn1CCC1CC1)C[C@]1(CCOc3cc(OCC(F)(F)F)ccc31)NC2=O` [Compound I-49]: the IC50 was determined as 1.9 nM.

The assay is the same for the next values; noted with them: read-out: IC50 (concentration exhibiting 50% enzyme inhibition), Table 53.
`Cc1ccc(-n2nc3c(c2NC(=O)CS(C)(=N)=O)C(=O)N[C@@]2(CCc4cc(OCC(F)(F)F)ccc42)C3)nc1` (single isomer, unassigned) [II-275]: the IC50 stood at 6.15 nM.

Values taken from patent US11198695B2, “Fused ring derivative having MGAT-2 inhibitory activity” (Shionogi & Co., Ltd., priority 2017, dated 2021).
